{"source": "the OligoGym collection", "note": "Oligonucleotides are written 5' to 3', each unit as a sugar letter and its base; * is a phosphorothioate linkage, no mark a phosphodiester; rarer units and linkages stand in square brackets, end groups in braces. Plain capitals give the bases only. d = 2'-deoxy (DNA); r = 2'-OH (RNA); also: test concentration or dose not given here", "data": [{"target": "UBE2S", "experiment": "reporter assay of Huesken 2005", "settings": "siRNA", "units": {"normalised inhibition (eCFP-eYFP dual reporter)": "%"}, "values": [{"substance": "sense rCrCrUrGrCrUrCrUrUrGrGrArGrArArCrUrArCdTdT / antisense rGrUrArGrUrUrCrUrCrCrArArGrArGrCrArGrGdCdG", "normalised inhibition (eCFP-eYFP dual reporter)": 70.7}, {"substance": "sense rGrUrGrGrGrCrGrCrCrArArUrGrGrCrGrArGrAdTdT / antisense rUrCrUrCrGrCrCrArUrUrGrGrCrGrCrCrCrArCdGdT", "normalised inhibition (eCFP-eYFP dual reporter)": 54.4}, {"substance": "sense rGrCrArCrUrCrArArCrGrArGrGrArGrGrCrGrGdTdT / antisense rCrCrGrCrCrUrCrCrUrCrGrUrUrGrArGrUrGrCdAdG", "normalised inhibition (eCFP-eYFP dual reporter)": 48.5}, {"substance": "sense rGrCrCrUrGrCrUrCrUrUrGrGrArGrArArCrUrAdTdT / antisense rUrArGrUrUrCrUrCrCrArArGrArGrCrArGrGrCdGdG", "normalised inhibition (eCFP-eYFP dual reporter)": 76}, {"substance": "sense rGrCrCrArGrUrGrGrCrArCrUrGrArArGrCrUrUdTdT / antisense rArArGrCrUrUrCrArGrUrGrCrCrArCrUrGrGrCdCdA", "normalised inhibition (eCFP-eYFP dual reporter)": 57.9}, {"substance": "sense rCrUrGrCrUrCrArCrArGrArGrArUrCrCrArCrGdTdT / antisense rCrGrUrGrGrArUrCrUrCrUrGrUrGrArGrCrArGdAdC", "normalised inhibition (eCFP-eYFP dual reporter)": 54.8}, {"substance": "sense rUrGrGrArGrGrUrCrUrGrUrUrCrCrGrCrArUrGdTdT / antisense rCrArUrGrCrGrGrArArCrArGrArCrCrUrCrCrAdGdC", "normalised inhibition (eCFP-eYFP dual reporter)": 58.5}, {"substance": "sense rUrGrArArArCrUrCrCrUrGrCrUrGrGrGrGrArAdTdT / antisense rUrUrCrCrCrCrArGrCrArGrGrArGrUrUrUrCrAdTdG", "normalised inhibition (eCFP-eYFP dual reporter)": 54}, {"substance": "sense rGrArCrArCrGrUrArCrUrGrCrUrGrArCrCrArUdTdT / antisense rArUrGrGrUrCrArGrCrArGrUrArCrGrUrGrUrCdGdG", "normalised inhibition (eCFP-eYFP dual reporter)": 85.5}, {"substance": "sense rUrUrCrCrCrArArCrGrArGrGrArGrGrArCrCrUdTdT / antisense rArGrGrUrCrCrUrCrCrUrCrGrUrUrGrGrGrArAdAdG", "normalised inhibition (eCFP-eYFP dual reporter)": 41.6}, {"substance": "sense rCrArArGrUrGrCrCrUrGrCrUrGrArUrCrCrArCdTdT / antisense rGrUrGrGrArUrCrArGrCrArGrGrCrArCrUrUrGdAdT", "normalised inhibition (eCFP-eYFP dual reporter)": 63.5}, {"substance": "sense rGrArGrUrArUrGrCrArGrCrUrCrGrGrGrCrCrCdTdT / antisense rGrGrGrCrCrCrGrArGrCrUrGrCrArUrArCrUrCdCdT", "normalised inhibition (eCFP-eYFP dual reporter)": 53.4}, {"substance": "sense rArCrUrGrArCrCrGrCrArGrArCrCrCrArCrCrCdTdT / antisense rGrGrGrUrGrGrGrUrCrUrGrCrGrGrUrCrArGrUdGdT", "normalised inhibition (eCFP-eYFP dual reporter)": 43.6}, {"substance": "sense rGrUrCrArCrCrArUrCrGrArGrGrGrCrCrCrUrGdTdT / antisense rCrArGrGrGrCrCrCrUrCrGrArUrGrGrUrGrArCdCdT", "normalised inhibition (eCFP-eYFP dual reporter)": 45.1}, {"substance": "sense rCrGrUrCrArArCrGrUrGrCrUrCrArArGrArGrGdTdT / antisense rCrCrUrCrUrUrGrArGrCrArCrGrUrUrGrArCrGdCdA", "normalised inhibition (eCFP-eYFP dual reporter)": 63.1}, {"substance": "sense rCrUrCrGrGrGrCrCrCrGrUrCrUrGrCrUrCrArCdTdT / antisense rGrUrGrArGrCrArGrArCrGrGrGrCrCrCrGrArGdCdT", "normalised inhibition (eCFP-eYFP dual reporter)": 55}, {"substance": "sense rGrGrGrCrUrGrArGrGrGrUrCrCrCrArUrGrGrCdTdT / antisense rGrCrCrArUrGrGrGrArCrCrCrUrCrArGrCrCrCdCdT", "normalised inhibition (eCFP-eYFP dual reporter)": 45.7}, {"substance": "sense rCrUrGrGrCrGrArGrCrGrCrGrArUrArArGrArAdTdT / antisense rUrUrCrUrUrArUrCrGrCrGrCrUrCrGrCrCrArGdCdA", "normalised inhibition (eCFP-eYFP dual reporter)": 82.4}, {"substance": "sense rUrGrCrUrCrUrUrGrGrArGrArArCrUrArCrGrAdTdT / antisense rUrCrGrUrArGrUrUrCrUrCrCrArArGrArGrCrAdGdG", "normalised inhibition (eCFP-eYFP dual reporter)": 77.8}, {"substance": "sense rGrArGrGrGrGrCrUrGrArGrGrGrUrCrCrCrArUdTdT / antisense rArUrGrGrGrArCrCrCrUrCrArGrCrCrCrCrUrCdCdC", "normalised inhibition (eCFP-eYFP dual reporter)": 45}, {"substance": "sense rUrCrUrGrUrUrCrCrGrCrArUrGrArArArCrUrCdTdT / antisense rGrArGrUrUrUrCrArUrGrCrGrGrArArCrArGrAdCdC", "normalised inhibition (eCFP-eYFP dual reporter)": 42.3}, {"substance": "sense rCrCrCrUrGrArGrGrGrGrArCrCrCrCrArUrArUdTdT / antisense rArUrArUrGrGrGrGrUrCrCrCrCrUrCrArGrGrGdCdC", "normalised inhibition (eCFP-eYFP dual reporter)": 46.5}, {"substance": "sense rArGrUrGrCrCrUrGrCrUrGrArUrCrCrArCrCrCdTdT / antisense rGrGrGrUrGrGrArUrCrArGrCrArGrGrCrArCrUdTdG", "normalised inhibition (eCFP-eYFP dual reporter)": 55.7}, {"substance": "sense rCrGrGrUrCrGrGrGrCrCrCrUrGrGrCrCrArGrUdTdT / antisense rArCrUrGrGrCrCrArGrGrGrCrCrCrGrArCrCrGdGdC", "normalised inhibition (eCFP-eYFP dual reporter)": 41.5}, {"substance": "sense rCrUrUrUrCrCrCrArArCrGrArGrGrArGrGrArCdTdT / antisense rGrUrCrCrUrCrCrUrCrGrUrUrGrGrGrArArArGdAdC", "normalised inhibition (eCFP-eYFP dual reporter)": 33.9}, {"substance": "sense rCrCrGrArArCrGrUrGrGrGrCrGrCrCrArArUrGdTdT / antisense rCrArUrUrGrGrCrGrCrCrCrArCrGrUrUrCrGrGdGdT", "normalised inhibition (eCFP-eYFP dual reporter)": 44.9}, {"substance": "sense rGrGrCrArUrCrArArGrGrUrCrUrUrUrCrCrCrAdTdT / antisense rUrGrGrGrArArArGrArCrCrUrUrGrArUrGrCrCdAdT", "normalised inhibition (eCFP-eYFP dual reporter)": 57.3}, {"substance": "sense rUrCrCrArCrCrCrUrArArCrCrCrCrGrArGrUrCdTdT / antisense rGrArCrUrCrGrGrGrGrUrUrArGrGrGrUrGrGrAdTdC", "normalised inhibition (eCFP-eYFP dual reporter)": 39.4}, {"substance": "sense rGrArCrCrCrArCrCrCrGrArUrGrGrCrArUrCrAdTdT / antisense rUrGrArUrGrCrCrArUrCrGrGrGrUrGrGrGrUrCdTdG", "normalised inhibition (eCFP-eYFP dual reporter)": 61.7}, {"substance": "sense rArGrCrUrUrCrCrUrCrCrArCrCrGrArCrCrCrUdTdT / antisense rArGrGrGrUrCrGrGrUrGrGrArGrGrArArGrCrUdTdC", "normalised inhibition (eCFP-eYFP dual reporter)": 49.4}, {"substance": "sense rArCrCrCrCrArUrArUrGrCrUrGrGrArGrGrUrCdTdT / antisense rGrArCrCrUrCrCrArGrCrArUrArUrGrGrGrGrUdCdC", "normalised inhibition (eCFP-eYFP dual reporter)": 49.9}, {"substance": "sense rCrGrArGrUrCrUrGrCrArCrUrCrArArCrGrArGdTdT / antisense rCrUrCrGrUrUrGrArGrUrGrCrArGrArCrUrCrGdGdG", "normalised inhibition (eCFP-eYFP dual reporter)": 70.6}, {"substance": "sense rArGrUrArUrGrCrArGrCrUrCrGrGrGrCrCrCrGdTdT / antisense rCrGrGrGrCrCrCrGrArGrCrUrGrCrArUrArCrUdCdC", "normalised inhibition (eCFP-eYFP dual reporter)": 49.8}, {"substance": "sense rArGrGrGrGrArCrCrCrCrArUrArUrGrCrUrGrGdTdT / antisense rCrCrArGrCrArUrArUrGrGrGrGrUrCrCrCrCrUdCdA", "normalised inhibition (eCFP-eYFP dual reporter)": 36.5}, {"substance": "sense rGrGrGrCrCrCrUrGrGrCrCrArGrUrGrGrCrArCdTdT / antisense rGrUrGrCrCrArCrUrGrGrCrCrArGrGrGrCrCrCdGdA", "normalised inhibition (eCFP-eYFP dual reporter)": 43}, {"substance": "sense rArArCrUrArCrGrArGrGrArGrUrArUrGrCrArGdTdT / antisense rCrUrGrCrArUrArCrUrCrCrUrCrGrUrArGrUrUdCdT", "normalised inhibition (eCFP-eYFP dual reporter)": 40}, {"substance": "sense rGrGrCrCrArArGrArArGrCrArUrGrCrUrGrGrCdTdT / antisense rGrCrCrArGrCrArUrGrCrUrUrCrUrUrGrGrCrCdAdT", "normalised inhibition (eCFP-eYFP dual reporter)": 57.2}, {"substance": "sense rCrGrCrArGrArCrCrCrArCrCrCrGrArUrGrGrCdTdT / antisense rGrCrCrArUrCrGrGrGrUrGrGrGrUrCrUrGrCrGdGdT", "normalised inhibition (eCFP-eYFP dual reporter)": 51.5}, {"substance": "sense rGrArGrGrArGrUrArUrGrCrArGrCrUrCrGrGrGdTdT / antisense rCrCrCrGrArGrCrUrGrCrArUrArCrUrCrCrUrCdGdT", "normalised inhibition (eCFP-eYFP dual reporter)": 56.7}, {"substance": "sense rUrCrCrCrArArCrGrArGrGrArGrGrArCrCrUrCdTdT / antisense rGrArGrGrUrCrCrUrCrCrUrCrGrUrUrGrGrGrAdAdA", "normalised inhibition (eCFP-eYFP dual reporter)": 35.7}, {"substance": "sense rGrGrGrGrCrUrGrArGrGrGrUrCrCrCrArUrGrGdTdT / antisense rCrCrArUrGrGrGrArCrCrCrUrCrArGrCrCrCrCdTdC", "normalised inhibition (eCFP-eYFP dual reporter)": 42.8}, {"substance": "sense rCrUrCrCrArCrCrGrArCrCrCrUrGrGrGrGrCrCdTdT / antisense rGrGrCrCrCrCrArGrGrGrUrCrGrGrUrGrGrArGdGdA", "normalised inhibition (eCFP-eYFP dual reporter)": 44}, {"substance": "sense rCrArCrCrCrArArGrGrGrCrUrArCrUrUrCrCrUdTdT / antisense rArGrGrArArGrUrArGrCrCrCrUrUrGrGrGrUrGdGdG", "normalised inhibition (eCFP-eYFP dual reporter)": 81.5}, {"substance": "sense rGrGrGrCrCrGrArArGrCrCrGrGrUrCrGrGrGrCdTdT / antisense rGrCrCrCrGrArCrCrGrGrCrUrUrCrGrGrCrCrCdTdG", "normalised inhibition (eCFP-eYFP dual reporter)": 36.4}, {"substance": "sense rUrArArCrCrCrCrGrArGrUrCrUrGrCrArCrUrCdTdT / antisense rGrArGrUrGrCrArGrArCrUrCrGrGrGrGrUrUrAdGdG", "normalised inhibition (eCFP-eYFP dual reporter)": 39.5}, {"substance": "sense rUrGrCrGrUrCrArArCrGrUrGrCrUrCrArArGrAdTdT / antisense rUrCrUrUrGrArGrCrArCrGrUrUrGrArCrGrCrAdGdA", "normalised inhibition (eCFP-eYFP dual reporter)": 74.5}, {"substance": "sense rArGrGrArCrUrUrCrCrCrUrGrCrCrUrCrCrCrCdTdT / antisense rGrGrGrGrArGrGrCrArGrGrGrArArGrUrCrCrUdTdC", "normalised inhibition (eCFP-eYFP dual reporter)": 55.2}, {"substance": "sense rGrGrCrCrGrCrCrUrGrCrUrCrUrUrGrGrArGrAdTdT / antisense rUrCrUrCrCrArArGrArGrCrArGrGrCrGrGrCrCdCdG", "normalised inhibition (eCFP-eYFP dual reporter)": 69.4}, {"substance": "sense rUrCrCrCrCrArCrCrCrArArGrGrGrCrUrArCrUdTdT / antisense rArGrUrArGrCrCrCrUrUrGrGrGrUrGrGrGrGrAdGdG", "normalised inhibition (eCFP-eYFP dual reporter)": 48.9}, {"substance": "sense rCrCrArCrCrCrArArGrGrGrCrUrArCrUrUrCrCdTdT / antisense rGrGrArArGrUrArGrCrCrCrUrUrGrGrGrUrGrGdGdG", "normalised inhibition (eCFP-eYFP dual reporter)": 54.7}, {"substance": "sense rArUrGrCrUrGrGrCrGrArGrCrGrCrGrArUrArAdTdT / antisense rUrUrArUrCrGrCrGrCrUrCrGrCrCrArGrCrArUdGdC", "normalised inhibition (eCFP-eYFP dual reporter)": 71.3}, {"substance": "sense rGrCrArCrUrGrArArGrCrUrUrCrCrUrCrCrArCdTdT / antisense rGrUrGrGrArGrGrArArGrCrUrUrCrArGrUrGrCdCdA", "normalised inhibition (eCFP-eYFP dual reporter)": 58.5}]}]}
